Test results published in publication PMC10390517, “Design, synthesis, in vitro, and in silico evaluations of benzo[d]imidazole-amide-1,2,3-triazole-N-arylacetamide hybrids as new antidiabetic agents targeting α-glucosidase” (Scientific Reports, 2023).
Read-outs that look alike come from different tables or passages of the source.

Tests used:
α-glucosidase [1] = target: T1, α-glucosidase (Saccharomyces cerevisiae, UniProt P53341); assay: biochemical; format: biochemical; conditions: for IC50: yeast form of α-glucosidase, mean ± S.E. of at least three different experiments; for activity against α-glucosidase (in words): SAR discussion / conclusion, compared with acarbose
T1 sequence (P53341 whole entry): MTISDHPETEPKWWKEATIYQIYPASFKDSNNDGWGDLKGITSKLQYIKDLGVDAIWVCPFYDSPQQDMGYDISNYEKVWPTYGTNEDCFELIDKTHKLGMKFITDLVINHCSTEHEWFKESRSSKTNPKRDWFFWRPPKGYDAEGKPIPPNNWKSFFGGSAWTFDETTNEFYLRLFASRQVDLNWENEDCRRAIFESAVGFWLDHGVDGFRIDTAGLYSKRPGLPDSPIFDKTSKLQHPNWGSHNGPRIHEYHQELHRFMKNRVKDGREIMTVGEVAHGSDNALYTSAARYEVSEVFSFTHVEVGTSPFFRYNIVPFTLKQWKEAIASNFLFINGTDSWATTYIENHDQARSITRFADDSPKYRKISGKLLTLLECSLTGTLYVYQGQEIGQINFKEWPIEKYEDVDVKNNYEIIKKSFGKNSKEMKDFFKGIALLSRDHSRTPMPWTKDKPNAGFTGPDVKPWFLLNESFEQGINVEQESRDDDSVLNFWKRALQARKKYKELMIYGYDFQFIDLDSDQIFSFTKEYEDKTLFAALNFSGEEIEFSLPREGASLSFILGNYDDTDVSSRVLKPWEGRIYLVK
Protocol: The newly synthesized benzo[d]imidazole-amide-1,2,3-triazole-N-arylacetamide hybrids 8a–n were evaluated against yeast form of α-glucosidase.

[2] = tested on: normal human cell line (HDF); assay: In vitro cytotoxicity by MTT method, HDF; conditions: normal cell line HDF
[3] = In vitro cytotoxicity by MTT method, HDF; conditions: human, HDF normal human cells
[4] = tested on: breast cancer cell line (MCF-7); assay: In vitro cytotoxicity by MTT method, MCF-7; conditions: cancer cell line MCF-7
[5] = In vitro cytotoxicity by MTT method, MCF-7; conditions: human, MCF-7 breast cancer cells
α-glucosidase [6] = target: T1, α-glucosidase; assay: Kinetic study of α-glucosidase inhibition (Lineweaver–Burk plots); format: biochemical, yeast
Protocol: Therefore, values of Vmax remained constant while the values of Km increased. […] Besides, the Ki value was 40.0 µM that was obtained by the secondary plot of Lineweaver–Burk plots (Fig. 2b).
Figure 2 Inhibitory kinetics of compound 8c on α-glucosidase. (a) Lineweaver–Burk plots for inhibition of compound 8c. (b) The secondary plot of Lineweaver–Burk plots for determination Ki value of compound 8c.
In vitro anti-α-glucosidase inhibition and kinetic study of the new compounds 8a–n were performed exactly according to our pervious reported works.

[7] = read-out: IC50 (α-glucosidase inhibitory activity)
[8] = IC50 (α-glucosidase inhibitory activity)

| SMILES | IC50 (α-glucosidase [1]; [7]) [µM] | melting point [°C] | IC50 (α-glucosidase [1]; [8]) [µM] | further results |
| --- | --- | --- | --- | --- |
| Cc1cccc(NC(=O)Cn2cc(CNC(=O)c3nc4ccccc4[nH]3)nn2)c1C [8e, N-((1-(2-((2,3-dimethylphenyl)amino)-2-oxoethyl)-1H-1,2,3-triazol-4-yl)methyl)-1H-benzo[d]imidazole-2-carboxamide] | 119.2 ± 0.8 | 216 to 218 |  | inhibitory activity diminished (fold) relative to 8c (α-glucosidase [1]; addition of a 2-methyl group to 3-methyl derivative 8c): around 2.5 fold; cytotoxic activity (in words) [2]: did not show cytotoxic activity; IC50 [3]: > 200 µM; cytotoxic activity (in words) [4]: did not show cytotoxic activity; IC50 [5]: > 200 µM |
| O=C(Cn1cc(CNC(=O)c2nc3ccccc3[nH]2)nn1)Nc1ccc(Cl)cc1Cl [8l, N-((1-(2-((2,4-dichlorophenyl)amino)-2-oxoethyl)-1H-1,2,3-triazol-4-yl)methyl)-1H-benzo[d]imidazole-2-carboxamide] | 668.5 ± 1.4 | 247 to 249 |  |  |
| O=C(Cn1cc(CNC(=O)c2nc3ccccc3[nH]2)nn1)Nc1ccc(Br)cc1 [8m, N-((1-(2-((4-bromophenyl)amino)-2-oxoethyl)-1H-1,2,3-triazol-4-yl)methyl)-1H-benzo[d]imidazole-2-carboxamide] |  | 227 to 229 | 183.6 ± 0.8 |  |
| Cc1cccc(NC(=O)Cn2cc(CNC(=O)c3nc4ccccc4[nH]3)nn2)c1 [8c, N-((1-(2-oxo-2-(m-tolylamino)ethyl)-1H-1,2,3-triazol-4-yl)methyl)-1H-benzo[d]imidazole-2-carboxamide] |  | 206 to 208 | 49 ± 0.4 | fold more potent than positive control (acarbose) (α-glucosidase [1]; ratio of IC50 values vs acarbose): 15.3 fold; cytotoxic activity (in words) [2]: did not show cytotoxic activity; IC50 [3]: > 200 µM; cytotoxic activity (in words) [4]: did not show cytotoxic activity; IC50 [5]: > 200 µM; inhibition mechanism against α-glucosidase (α-glucosidase [6]; Lineweaver–Burk plot, Vmax constant, Km increased): competitive inhibitor; Ki (α-glucosidase [6]; secondary plot of Lineweaver–Burk plots): 40 µM |
| CCc1ccc(NC(=O)Cn2cc(CNC(=O)c3nc4ccccc4[nH]3)nn2)cc1 [8h, N-((1-(2-((4-ethylphenyl)amino)-2-oxoethyl)-1H-1,2,3-triazol-4-yl)methyl)-1H-benzo[d]imidazole-2-carboxamide] | 251.9 ± 1.6 | 213 to 215 |  |  |
| Cc1cccc(C)c1NC(=O)Cn1cc(CNC(=O)c2nc3ccccc3[nH]2)nn1 [8g, N-((1-(2-((2,6-dimethylphenyl)amino)-2-oxoethyl)-1H-1,2,3-triazol-4-yl)methyl)-1H-benzo[d]imidazole-2-carboxamide] | 125.6 ± 0.3 | 222 to 224 |  | cytotoxic activity (in words) [2]: did not show cytotoxic activity; IC50 [3]: > 200 µM; cytotoxic activity (in words) [4]: did not show cytotoxic activity; IC50 [5]: > 200 µM |
| COc1ccc(NC(=O)Cn2cc(CNC(=O)c3nc4ccccc4[nH]3)nn2)cc1 [8i, N-((1-(2-((4-methoxyphenyl)amino)-2-oxoethyl)-1H-1,2,3-triazol-4-yl)methyl)-1H-benzo[d]imidazole-2-carboxamide] |  | 235 to 237 | > 750 |  |
| O=C(Cn1cc(CNC(=O)c2nc3ccccc3[nH]2)nn1)Nc1ccccc1 [8a, N-((1-(2-oxo-2-(phenylamino)ethyl)-1H-1,2,3-triazol-4-yl)methyl)-1H-benzo[d]imidazole-2-carboxamide] | > 750 |  |  | activity against α-glucosidase (in words) (α-glucosidase [1]): have not activity |
| O=C(Cn1cc(CNC(=O)c2nc3ccccc3[nH]2)nn1)Nc1ccc([N+](=O)[O-])cc1 [8n, N-((1-(2-((4-nitrophenyl)amino)-2-oxoethyl)-1H-1,2,3-triazol-4-yl)methyl)-1H-benzo[d]imidazole-2-carboxamide] | > 750 | 259 to 261 |  |  |
| Cc1ccc(NC(=O)Cn2cc(CNC(=O)c3nc4ccccc4[nH]3)nn2)cc1 [8d, N-((1-(2-oxo-2-(p-tolylamino)ethyl)-1H-1,2,3-triazol-4-yl)methyl)-1H-benzo[d]imidazole-2-carboxamide] |  | 209 to 211 | > 750 | activity against α-glucosidase (in words) (α-glucosidase [1]): have not activity |
| O=C(Cn1cc(CNC(=O)c2nc3ccccc3[nH]2)nn1)Nc1ccc(Cl)cc1 [8k, N-((1-(2-((4-chlorophenyl)amino)-2-oxoethyl)-1H-1,2,3-triazol-4-yl)methyl)-1H-benzo[d]imidazole-2-carboxamide] |  | 236 to 238 | 134.2 ± 0.9 |  |
| Cc1ccccc1NC(=O)Cn1cc(CNC(=O)c2nc3ccccc3[nH]2)nn1 [8b, N-((1-(2-oxo-2-(o-tolylamino)ethyl)-1H-1,2,3-triazol-4-yl)methyl)-1H-benzo[d]imidazole-2-carboxamide] |  |  | > 750 | activity against α-glucosidase (in words) (α-glucosidase [1]): have not activity |
| O=C(Cn1cc(CNC(=O)c2nc3ccccc3[nH]2)nn1)Nc1ccc(F)cc1 [8j, N-((1-(2-((4-fluorophenyl)amino)-2-oxoethyl)-1H-1,2,3-triazol-4-yl)methyl)-1H-benzo[d]imidazole-2-carboxamide] |  | 245 to 247 | > 750 |  |
| Cc1ccc(NC(=O)Cn2cc(CNC(=O)c3nc4ccccc4[nH]3)nn2)c(C)c1 [8f, N-((1-(2-((2,4-dimethylphenyl)amino)-2-oxoethyl)-1H-1,2,3-triazol-4-yl)methyl)-1H-benzo[d]imidazole-2-carboxamide] | 422.6 ± 1.1 | 226 to 228 |  |  |
